In patent US8546401B2, “5,6-disubstituted oxindole-derivatives and use thereof for treating vasopressin-dependent diseases” (AbbVie Deutschland GmbH & Co. KG, priority 2007, dated 2013):

Experiments:
[1] = molecular target: T1, human vasopressin V1a receptor (Homo sapiens, UniProt P37288); test: Vasopressin V1a receptor binding assay; conditions: selectivity quotient, human receptors
T1 construct: expressed in transfected cells; host or cells: CHO-K1 (cell line hV1a_5_CHO), membrane preparation
Procedure: 2. Vasopressin V1a Receptor Binding Assay:
The test substances were dissolved in a concentration of 10^−2 M in DMSO. Further dilution of these DMSO solutions took place in incubation buffer (50 mM Tris, 10 mM MgCl2, 0.1% BSA, pH 7.4).
CHO-K1 cells with stably expressed human vasopressin V1a receptor (clone 5) were harvested and homogenized in 50 mM Tris-HCl and in the presence of protease inhibitors (Roche complete Mini #1836170) using a Polytron homogenizer at intermediate setting for 2×10 seconds, and subsequently centrifuged at 40 000×g for 1 h. The membrane pellet was again homogenized and centrifuged as described and subsequently taken up in 50 mM Tris-HCl, pH 7.4, homogenized and stored in aliquots frozen in liquid nitrogen at −190° C.
(§1) The binding assay was carried out by the method based on that of Tahara et al. (Tahara A et al., Brit. J. Pharmacol. 125, 1463-1470 (1998)).
(§2) The incubation buffer was: 50 mM Tris, 10 mM MgCl2, 0.1% BSA, pH 7.4.
In the assay mixture (250 μl), membranes (20 μg/ml protein in incubation buffer) from CHO-K1 cells with stably expressed human V1a receptors (cell line hV1a—5_CHO) were incubated with 0.04 nM ^125I-AVP (8-Arg-vasopressin, NEX 128) in incubation buffer (50 mM Tris, 10 mM MgCl2, 0.1% BSA, pH 7.4) (total binding) or additionally with increasing concentrations of test substance (displacement experiment). The nonspecific binding was determined with 1 μM AVP (Bachem #H1780). Triplicate determinations were carried out.
After incubation (60 minutes at room temperature), the free radioligand was filtered off by vacuum filtration (Skatron cell harvester 7000) through Wathman GF/B glass fiber filter mats, and the filters were transferred into scintillation vials.
The liquid scintillation measurement took place in a model 2000 or 2200CA Tricarb instrument (Packard). Conversion of the measured cpm into dpm was carried out with the aid of a standard quench series.
The binding parameters were calculated by nonlinear regression in SAS. The algorithms of the program operate in analogy to the LIGAND analysis program (Munson P J and Rodbard D, Analytical Biochem. 107, 220-239 (1980)). The Kd of ^125I-AVP for the recombinant hV1a receptors was determined in saturation experiments. A Kd of 1.33 nM was used to determine the Ki.

human oxytocin receptors = molecular target: T2, human oxytocin receptors (Homo sapiens, UniProt P30559); test: Oxytocin receptor binding assay; conditions: selectivity quotient
T2 construct: expressed in transfected cells; host or cells: HEK-293, transient expression; lysed and homogenized cells
T2 sequence (P30559 1-389): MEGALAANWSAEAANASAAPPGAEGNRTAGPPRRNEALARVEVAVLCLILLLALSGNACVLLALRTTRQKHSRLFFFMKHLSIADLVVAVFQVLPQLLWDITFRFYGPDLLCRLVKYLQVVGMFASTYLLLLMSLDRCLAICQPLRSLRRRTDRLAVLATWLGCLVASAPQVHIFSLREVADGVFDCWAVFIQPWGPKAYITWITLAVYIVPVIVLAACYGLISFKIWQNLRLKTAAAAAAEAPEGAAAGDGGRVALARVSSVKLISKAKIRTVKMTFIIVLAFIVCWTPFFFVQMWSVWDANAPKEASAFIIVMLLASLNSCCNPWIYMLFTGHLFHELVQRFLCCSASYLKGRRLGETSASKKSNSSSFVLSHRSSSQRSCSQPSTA
Procedure: 4. Oxytocin Receptor Binding Assay
The substances were dissolved in a concentration of 10^−2 M in DMSO and diluted with incubation buffer (50 mM Tris, 10 mM MgCl2, 0.1% BSA, pH 7.4).
Confluent HEK-293 cells with transiently expressing recombinant human oxytocin receptors were centrifuged at 750×g at room temperature for 5 minutes. The residue was taken up in ice-cold lysis buffer (50 mM Tris-HCl, 10% glycerol, pH 7.4 and Roche complete protease inhibitor) and subjected to an osmotic shock at 4° C. for 20 minutes. The lyzed cells were then centrifuged at 750×g at 4° C. for 20 minutes, the residue was taken up in incubation buffer, and aliquots of 10^7 cells/ml were prepared. The aliquots were frozen at −80° C. until used.
On the day of the experiment, the cells were thawed, diluted with incubation buffer and homogenized using a Multipette Combitip (Eppendorf, Hamburg). The reaction mixture of 0.250 ml was composed of 2 to 5×10^4 recombinant cells, 3-4 nM ^3H-oxytocin (PerkinElmer, NET 858) in the presence of test substance (inhibition plot) or only incubation buffer (total binding). The nonspecific binding was determined with 10^−6 M oxytocin (Bachem AG, H2510). Triplicate determinations were set up. Bound and free radioligand were separated by filtration under vacuum with Whatman GF/B glass fiber filters with the aid of a Skatron cell harvester 7000. The bound radioactivity was determined by liquid scintillation measurement in a Tricarb Beta counter, model 2000 or 2200CA (Packard).
The binding parameters were calculated by nonlinear regression analysis (SAS) in analogy to the LIGAND program of Munson and Rodbard (Analytical Biochem 1980; 107: 220-239). The Kd of ^3H-oxytocin for the recombinant hOT receptors is 7.6 nM and was used to determine the Ki.

[2] = molecular target: T3, human vasopressin V1b receptor (Homo sapiens, UniProt P47901); test: Vasopressin V1b receptor binding assay; conditions: CHO-K1 membranes, 3H-AVP displacement
T3 construct: expressed in transfected cells; host or cells: CHO-K1 (cell line hV1b_3H2_CHO), membrane preparation
T3 sequence (P47901 1-424): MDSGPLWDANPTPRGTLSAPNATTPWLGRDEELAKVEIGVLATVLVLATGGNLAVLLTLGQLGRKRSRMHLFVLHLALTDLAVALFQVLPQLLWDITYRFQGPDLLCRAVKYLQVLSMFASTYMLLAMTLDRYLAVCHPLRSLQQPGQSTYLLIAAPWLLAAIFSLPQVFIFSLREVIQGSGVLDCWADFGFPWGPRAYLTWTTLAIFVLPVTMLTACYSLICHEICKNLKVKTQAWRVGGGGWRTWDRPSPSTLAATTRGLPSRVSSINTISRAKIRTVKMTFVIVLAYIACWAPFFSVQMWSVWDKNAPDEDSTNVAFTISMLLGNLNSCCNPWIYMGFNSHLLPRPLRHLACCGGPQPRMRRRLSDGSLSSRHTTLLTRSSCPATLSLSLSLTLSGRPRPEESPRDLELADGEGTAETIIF
Procedure: 1. Vasopressin V1b Receptor Binding Assay:
The test substances were dissolved in a concentration of 10^−2 M in DMSO and further diluted to 5×10^−4 M to 5×10^−3 M. These serial DMSO predilutions were diluted 1:10 with assay buffer. The substance concentration was further diluted 1:5 in the assay mixture (2% DMSO in the mixture).
CHO-K1 cells with stably expressed human vasopressin V1b receptor (clone 3H2) were harvested and homogenized in 50 mM Tris-HCl and in the presence of protease inhibitors (Roche complete Mini #1836170) using a Polytron homogenizer at intermediate setting for 2×10 seconds, and subsequently centrifuged at 40 000×g for 1 h. The membrane pellet was again homogenized and centrifuged as described and subsequently taken up in 50 mM Tris-HCl, pH 7.4, homogenized and stored in aliquots frozen in liquid nitrogen at −190° C.
as §1, §2
In the assay mixture (250 μl), membranes (50 μg/ml protein in incubation buffer) from CHO-K1 cells with stably expressed human V1b receptors (cell line hV1b—3H2_CHO) were incubated with 1.5 nM ^3H-AVP (8-Arg-vasopressin, PerkinElmer #18479) in incubation buffer (50 mM Tris, 10 mM MgCl2, 0.1% BSA, pH 7.4) (total binding) or additionally with increasing concentrations of test substance (displacement experiment). The nonspecific binding was determined with […] (Bachem #H1780). All determinations were carried out as triplicate determinations. After incubation (60 minutes at room temperature), the free radioligand was filtered off by vacuum filtration (Skatron cell harvester 7000) through Wathman GF/B glass fiber filter mats, and the filters were transferred into scintillation vials. The liquid scintillation measurement took place in a model 2000 or 2200CA Tricarb instrument (Packard). Conversion of the measured cpm into dpm was carried out with the aid of a standard quench series.
The binding parameters were calculated by nonlinear regression in SAS. The algorithms of the program operate in analogy to the LIGAND analysis program (Munson P J and Rodbard D, Analytical Biochem. 107, 220-239 (1980)). The Kd of ^3H-AVP for the recombinant human V1b receptors is 0.4 nM and was used to determine the Ki.

T1 sequence (P37288 whole entry): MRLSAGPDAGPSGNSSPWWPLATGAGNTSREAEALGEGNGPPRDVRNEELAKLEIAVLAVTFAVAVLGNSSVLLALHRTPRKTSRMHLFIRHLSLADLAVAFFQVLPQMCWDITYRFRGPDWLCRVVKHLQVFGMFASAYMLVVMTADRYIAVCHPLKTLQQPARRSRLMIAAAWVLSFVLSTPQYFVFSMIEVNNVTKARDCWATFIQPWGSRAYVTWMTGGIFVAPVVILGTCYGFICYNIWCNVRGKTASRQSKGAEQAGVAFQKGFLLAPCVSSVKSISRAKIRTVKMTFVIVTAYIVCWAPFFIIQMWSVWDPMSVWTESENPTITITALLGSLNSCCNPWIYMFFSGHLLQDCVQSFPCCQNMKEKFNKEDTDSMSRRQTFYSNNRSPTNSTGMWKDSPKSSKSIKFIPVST

Ki(h − V1a)/Ki(h − V1b)* [1] | Ki(h − OT)/Ki(h − V1b)* (human oxytocin receptors) | Ki [2] | SMILES
+++ (>75) | +++ (>75) | < 1 nM | CCOc1ncccc1C1(NC(=O)N2CCN(C3CCN(C)CC3)CC2)C(=O)N(S(=O)(=O)c2ccc(OC)cc2OC)c2cc(F)c(C#N)cc21 (stereo not drawn) [Example 1, 4-(1-Methylpiperidin-4-yl)piperazin-1-[5-cyano-1-(2,4-dimethoxyphenylsulfonyl)-3-(2-ethoxypyridin-3-yl)-6-fluoro-2-oxo-2,3-dihydro-1H-indol-3-yl]carboxamide]
+++ (>75) | +++ (>75) | < 1 nM | CCOc1ncccc1C1(NC(=O)N2CCN(C3CCN(CC)CC3)CC2)C(=O)N(S(=O)(=O)c2ccc(OC)cc2OC)c2cc(F)c(C#N)cc21 (stereo not drawn) [Example 2, 4-(1-Ethylpiperidin-4-yl)piperazine-1-[5-cyano-1-(2,4-dimethoxyphenylsulfonyl)-3-(2-ethoxypyridin-3-yl)-6-fluoro-2-oxo-2,3-dihydro-1H-indol-3-yl]carboxamide]
++ (25-75) | +++ (>75) | < 1 nM | CCOc1ncccc1C1(NC(=O)N2CCC(N3CCN(C)CC3)CC2)C(=O)N(S(=O)(=O)c2ccc(OC)cc2OC)c2cc(F)c(C#N)cc21 (stereo not drawn) [Example 3, 4-(4-Methylpiperazin-1-yl)piperidine-1-[5-cyano-1-(2,4-dimethoxyphenylsulfonyl)-3-(2-ethoxypyridin-3-yl)-6-fluoro-2-oxo-2,3-dihydro-1H-indol-3-yl]carboxamide]
+++ (>75) | +++ (>75) | 1 to 10 nM | CCOc1ncccc1C1(NC(=O)N2CCN(C3CCN(C)CC3)CC2)C(=O)N(S(=O)(=O)c2ccc(OC)cc2)c2cc(F)c(C#N)cc21 (stereo not drawn) [Example 5, 4-(1-Methylpiperidin-4-yl)piperazine-1-[5-cyano-3-(2-ethoxypyridin-3-yl)-6-fluoro-1-(4-methoxyphenylsulfonyl)-2-oxo-2,3-dihydro-1H-indol-3-yl]carboxamide]

Second part, the compound before the results:

SMILES | Ki(h − V1a)/Ki(h − V1b)* [1] | Ki(h − OT)/Ki(h − V1b)* (human oxytocin receptors) | Ki [2]
CCOc1ncccc1C1(NC(=O)N2CCC(N3CCN(CC)CC3)CC2)C(=O)N(S(=O)(=O)c2ccc(OC)cc2OC)c2cc(F)c(C#N)cc21 (stereo not drawn) [Example 4, 4-(4-Ethylpiperazin-1-yl)piperidine-1-[5-cyano-1-(2,4-dimethoxyphenylsulfonyl)-3-(2-ethoxypyridin-3-yl)-6-fluoro-2-oxo-2,3-dihydro-1H-indol-3-yl]carboxamide] | ++ (25-75) | +++ (>75) | < 1 nM
CCOc1ncccc1C1(NC(=O)N2CCN(C3CCN(CC)CC3)CC2)C(=O)N(S(=O)(=O)c2ccc(OC)cc2)c2cc(F)c(C#N)cc21 (stereo not drawn) [Example 6, 4-(1-Ethylpiperidin-4-yl)piperazine-1-[5-cyano-3-(2-ethoxypyridin-3-yl)-6-fluoro-1-(4-methoxyphenylsulfonyl)-2-oxo-2,3-dihydro-1H-indol-3-yl]carboxamide] | +++ (>75) | +++ (>75) | 1 to 10 nM
CCOc1ncccc1C1(NC(=O)N2CCC(N3CCN(C)CC3)CC2)C(=O)N(S(=O)(=O)c2ccc(OC)cc2)c2cc(F)c(C#N)cc21 (stereo not drawn) [Example 7, 4-(4-Methylpiperazin-1-yl)piperidine-1-[5-cyano-3-(2-ethoxypyridin-3-yl)-6-fluoro-1-(4-methoxyphenylsulfonyl)-2-oxo-2,3-dihydro-1H-indol-3-yl]carboxamide] | + (10-<25) | +++ (>75) | 1 to 10 nM
